Measurements published in PubChem BioAssay AID330 (DTP/NCI, 2004).
Several values for one entry are separate records, joined by “and”; a condition that tells them apart may be missing. Equal entries are not always repeated. Toxic doses and inconclusive results are not listed. The calls were made as follows: active = survival T/C of 150% or more; inactive = T/C below 125% in these data.

Test system: P388 leukemia ip, CD2F1 mice, survival T/C
Assay: NCI In Vivo Anticancer Drug Screen. Data for tumor model P388 Leukemia (intraperitoneal) in CD2F1 (CDF1) mice
Details: endpoint: median survival time, higher = longer survival
Procedure, shortened: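 Mice carrying the transplanted tumor received test compound or vehicle. Survival was recorded in each group, and the value is the treated-group measurement divided by that of the vehicle-treated control group.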

[1] = dose: 60.0 mg/kg/injection, schedule: Q01DX005 (ip), vehicle: saline with Tween-80
[2] = dose: 120.0 mg/kg/injection, schedule: Q01DX005 (ip), vehicle: saline with Tween-80
[3] = dose: 240.0 mg/kg/injection, schedule: Q01DX005 (ip), vehicle: saline with Tween-80
[4] = dose: 50.0 mg/kg/injection, schedule: Q01DX005 (ip), vehicle: Klucel (hydroxypropylcellulose) (HPC)
[5] = dose: 100.0 mg/kg/injection, schedule: Q01DX005 (ip), vehicle: Klucel (hydroxypropylcellulose) (HPC)
[6] = dose: 200.0 mg/kg/injection, schedule: Q01DX005 (ip), vehicle: Klucel (hydroxypropylcellulose) (HPC)
[7] = dose: 60.0 mg/kg/injection, schedule: Q01DX005 (ip), vehicle: saline
[8] = dose: 120.0 mg/kg/injection, schedule: Q01DX005 (ip), vehicle: saline
[9] = dose: 50.0 mg/kg/injection, schedule: Q01DX009 (ip), vehicle: saline with Tween-80
[10] = dose: 100.0 mg/kg/injection, schedule: Q01DX009 (ip), vehicle: saline with Tween-80
[11] = dose: 200.0 mg/kg/injection, schedule: Q01DX009 (ip), vehicle: saline with Tween-80
[12] = dose: 50.0 mg/kg/injection, schedule: Q01DX009 (ip), vehicle: saline
[13] = dose: 100.0 mg/kg/injection, schedule: Q01DX009 (ip), vehicle: saline
[14] = dose: 200.0 mg/kg/injection, schedule: Q01DX009 (ip), vehicle: saline
[15] = dose: 60.0 mg/kg/injection, schedule: Q01DX005 (ip), vehicle: Klucel (hydroxypropylcellulose) (HPC)
[16] = dose: 120.0 mg/kg/injection, schedule: Q01DX005 (ip), vehicle: Klucel (hydroxypropylcellulose) (HPC)
[17] = dose: 240.0 mg/kg/injection, schedule: Q01DX005 (ip), vehicle: Klucel (hydroxypropylcellulose) (HPC)

Measured: T/C

O=C1CCC(Cc2ccc(C(F)(F)F)cc2)C(=O)N1 (stereo not given)
inactive: [1] 102 % of control | [2] 95 % of control | [3] 98 % of control

CC(c1ccccc1)c1cc(C(C)(C)C)c(O)c(C(C)(C)C)c1 (stereo not given)
inactive: dose: 50.0 mg/kg/injection, schedule: Q01DX005 (ip), vehicle: distilled water + alcohol 100 % of control | dose: 100.0 mg/kg/injection, schedule: Q01DX005 (ip), vehicle: distilled water + alcohol 99 % of control | dose: 200.0 mg/kg/injection, schedule: Q01DX005 (ip), vehicle: distilled water + alcohol 93 % of control

COCCCOC(=O)Oc1ccc(CC(N)C(=O)O)cc1 (stereo not given)
inactive: [4] 99 % of control | [5] 99 % of control | [6] 96 % of control

CCN(CCO)CC1CCCC2CCCCC21 (stereo not given)
inactive: [7] 92 % of control | [8] 98 % of control

CCOC(=O)c1c(C)cn[nH]c1=O
inactive: [9] 96 % of control | [10] 99 % of control | [11] 95 % of control

O=C(C(=O)c1ccc(C(=O)C(=O)c2ccccc2)cc1)c1ccccc1
inactive: [1] 104 % of control | [2] 93 % of control | [3] 96 % of control

Nc1ncnc2c1ncn2C1OC(CO)C(O)C1N (stereo not given)
inactive: dose: 50.0 mg/kg/injection, schedule: Q04DX002 (ip), vehicle: saline 106 % of control | dose: 100.0 mg/kg/injection, schedule: Q04DX002 (ip), vehicle: saline 110 % of control | dose: 200.0 mg/kg/injection, schedule: Q04DX002 (ip), vehicle: saline 112 % of control

CN(C)CCOc1ccccn1
inactive: [12] 98 % of control | [13] 101 % of control

CCCCCCC1N=C(N)N=C(N)N1c1ccc(Cl)cc1 (stereo not given)
inactive: dose: 6.25 mg/kg/injection, schedule: Q01DX005 (ip), vehicle: Klucel (hydroxypropylcellulose) (HPC) 100 % of control | dose: 12.5 mg/kg/injection, schedule: Q01DX005 (ip), vehicle: Klucel (hydroxypropylcellulose) (HPC) 110 % of control | dose: 25.0 mg/kg/injection, schedule: Q01DX005 (ip), vehicle: Klucel (hydroxypropylcellulose) (HPC) 106 % of control

COc1cc2ccnc(CCCc3nccc4cc(OC)c(OC)cc34)c2cc1OC
inactive: dose: 25.0 mg/kg/injection, schedule: Q04DX002 (ip), vehicle: Klucel (hydroxypropylcellulose) (HPC) 101 % of control | dose: 50.0 mg/kg/injection, schedule: Q04DX002 (ip), vehicle: Klucel (hydroxypropylcellulose) (HPC) 95 % of control | dose: 100.0 mg/kg/injection, schedule: Q04DX002 (ip), vehicle: Klucel (hydroxypropylcellulose) (HPC) 101 % of control and 104 % of control

CC(NC(=O)C(Cc1ccccc1)NC(=O)c1ccc[n+](Cc2ccccc2)c1)C(N)=O (stereo not given)
inactive: [7] 97 % of control | [8] 93 % of control

COc1cc(/C=C/c2ccnnc2)cc(OC)c1OC
inactive: [12] 97 % of control | [13] 94 % of control | [14] 87 % of control

COc1cc2cc(-c3ccccn3)nc(N)c2cc1OC
inactive: [1] 100 % of control | [2] 101 % of control

S=C1NCCOc2ccccc21
inactive: [15] 100 % of control | [16] 100 % of control

O=C(O)Cn1cc(I)c(=O)c(I)c1
inactive: [9] 102 % of control | [10] 112 % of control | [13] 101 % of control | [11] 110 % of control | [14] 105 % of control | dose: 400.0 mg/kg/injection, schedule: Q01DX009 (ip), vehicle: saline with Tween-80 112 % of control | dose: 400.0 mg/kg/injection, schedule: Q01DX009 (ip), vehicle: saline 102 % of control | dose: 600.0 mg/kg/injection, schedule: Q01DX009 (ip), vehicle: saline 101 % of control

CCOC(=O)c1cnc2ccc(C3CCCCC3)cc2c1Nc1ccc2c(c1)OCO2
inactive: [1] 99 % of control | [2] 91 % of control | [3] 91 % of control

CC1=NN(C(=O)c2ccccc2)C(=O)C1N=Nc1ccc([N+](=O)[O-])cc1 (stereo not given)
inactive: dose: 25.0 mg/kg/injection, schedule: Q04DX002 (ip), vehicle: saline with Tween-80 101 % of control | dose: 50.0 mg/kg/injection, schedule: Q04DX002 (ip), vehicle: saline with Tween-80 100 % of control | dose: 100.0 mg/kg/injection, schedule: Q04DX002 (ip), vehicle: saline with Tween-80 88 % of control and 92 % of control

O=C(NC(=S)Nc1ccsc1)c1ccccc1
inactive: [9] 90 % of control | [10] 88 % of control

Cc1cc2cc3c(=O)n(C)c(=O)nc-3n(CC(O)C(O)C(O)CO)c2cc1C (stereo not given)
inactive: dose: 15.0 mg/kg/injection, schedule: Q01DX009 (ip), vehicle: saline with Tween-80 98 % of control | dose: 30.0 mg/kg/injection, schedule: Q01DX009 (ip), vehicle: saline with Tween-80 98 % of control | dose: 60.0 mg/kg/injection, schedule: Q01DX009 (ip), vehicle: saline with Tween-80 113 % of control

O=C(OCCn1c(=O)n(CCOC(=O)c2cccc([N+](=O)[O-])c2)c(=O)n(CCOC(=O)c2cccc([N+](=O)[O-])c2)c1=O)c1cccc([N+](=O)[O-])c1
inactive: dose: 100.0 mg/kg/injection, schedule: Q04DX003 (ip), vehicle: Klucel (hydroxypropylcellulose) (HPC) 93 % of control | dose: 200.0 mg/kg/injection, schedule: Q04DX003 (ip), vehicle: Klucel (hydroxypropylcellulose) (HPC) 86 % of control | dose: 400.0 mg/kg/injection, schedule: Q04DX003 (ip), vehicle: Klucel (hydroxypropylcellulose) (HPC) 87 % of control

CCOC(=O)COc1cc2c(cc1C(C)c1ccc(OC)cc1)OCO2 (stereo not given)
inactive: [4] 104 % of control | [5] 100 % of control | [6] 94 % of control

Cc1ccc2c(c1)Pc1cc(C)ccc1S2
inactive: [15] 109 % of control | [16] 101 % of control | [17] 104 % of control

COc1ccc2c(c1)CCC1=C2CCP1(C)=S (stereo not given)
inactive: dose: 50.0 mg/kg/injection, schedule: Q01DX009 (ip), vehicle: Klucel (hydroxypropylcellulose) (HPC) 106 % of control | dose: 100.0 mg/kg/injection, schedule: Q01DX009 (ip), vehicle: Klucel (hydroxypropylcellulose) (HPC) 97 % of control | dose: 200.0 mg/kg/injection, schedule: Q01DX009 (ip), vehicle: Klucel (hydroxypropylcellulose) (HPC) 88 % of control

CCOC(=O)c1ccc(NC(=O)Nc2cccc3c(O)cccc23)cc1
inactive: [15] 89 % of control | [16] 96 % of control | [17] 88 % of control

CCCCCCCCCCCCCCCCCCOCC(O)CO (stereo not given)
inactive: dose: 25.0 mg/kg/injection, schedule: Q01DX009 (ip), vehicle: saline + alcohol 91 % of control | dose: 50.0 mg/kg/injection, schedule: Q01DX009 (ip), vehicle: saline + alcohol 92 % of control | dose: 100.0 mg/kg/injection, schedule: Q01DX009 (ip), vehicle: saline + alcohol 94 % of control | dose: 200.0 mg/kg/injection, schedule: Q01DX009 (ip), vehicle: saline + alcohol 100 % of control | dose: 400.0 mg/kg/injection, schedule: Q01DX009 (ip), vehicle: saline + alcohol 100 % of control

C1CC[N-]CC1.CC(=N\O)/C(C)=N/O.CC(=N\O)/C(C)=N/O.N#C[CH-]CC#N.[Co+2]
inactive: dose: 12.5 mg/kg/injection, schedule: Q01DX009 (ip), vehicle: saline with Tween-80 91 % of control | dose: 25.0 mg/kg/injection, schedule: Q01DX009 (ip), vehicle: saline with Tween-80 96 % of control | [9] 97 % of control | [10] 92 % of control
